Laboratory results: publication PMC10779433, “Bidirectional Allosteric Coupling between PIP2 Binding and the Pore of the Oncochannel TRPV6” (International Journal of Molecular Sciences, 2024)
Like-named read-outs stand apart in the source and are kept apart here. Residues, ends and D or L forms follow the SMILES beside them. *: point of attachment. Palmitoyl = CCCCCCCCCCCCCCCC(=O)*

Columns and labels:
TRPV6 W583F = test: Whole-cell patch clamp, TRPV6 W583F; type: cell-based, human; details: HEK293 cells, 10 μM pal-PIP2 peptide, Figure 5C
From the text: N-terminally TagRFP-labeled human TRPV6 (725 aa) was kindly provided by R. Bhardwaj and M. Hediger (University of Bern, Bern, Switzerland). This variant is translated from the first ATG codon and thus deviates from the non-ATG-initiated protein which is expressed in vivo (accession number NM_018646.6) by lacking 40 amino acids of the very N-terminus. For N-terminal labeling with EYFP, TRPV6 was cloned into pEYFP-C1 (Clontech) via EcoRI and SacII restriction sites. Mutations (F468A, R470A, F472A, K484A/Q, G488R, R492A/Q, I575A, G579A, D580A/K, H582A, W583A/F, H587A, R589A, W593A, R632A/Q, R470A, W583F) were introduced using the QuickChange XL site-directed mutagenesis kit (Stratagene, San Diego, CA, USA) and Pfu DNA Polymerase (Promega, Madison, WI, USA). pTagRFP-hTRPV6 I575A was kindly provided by the lab of M. Hediger (University of Bern, Bern, Switzerland). Forward and reverse primers for site-directed mutagenesis were synthesized by Eurofins genomics GmbH (Wien, Vienna, Austria). Intactness of the constructs in terms of sequence was confirmed by sequencing (Microsynth Austria GmbH, Wien, Vienna, Austria; Eurofins genomics GmbH, Wien, Vienna, Austria). […]
Electrophysiological experiments were performed at 20 °C to 24 °C in whole-cell recording configurations of the patch clamp technique. […] The liquid junction potential was determined as 12 mV; the voltages were not adjusted. […]

TRPV6 WT = biological target: T1, TRPV6 WT (Homo sapiens, UniProt Q9H1D0); test: Whole-cell patch clamp, TRPV6 WT; type: cell-based; details: for re-activation after washout with DMSO: 0.1 μM cis-22a or 10 μM pal-PIP2 peptide, then diluted DMSO, n=4 each, Figure S6C,D
T1 construct: expressed in transfected cells; host or cells: HEK293 cells, transient transfection
T1 sequence (Q9H1D0 41-765 limits assumed): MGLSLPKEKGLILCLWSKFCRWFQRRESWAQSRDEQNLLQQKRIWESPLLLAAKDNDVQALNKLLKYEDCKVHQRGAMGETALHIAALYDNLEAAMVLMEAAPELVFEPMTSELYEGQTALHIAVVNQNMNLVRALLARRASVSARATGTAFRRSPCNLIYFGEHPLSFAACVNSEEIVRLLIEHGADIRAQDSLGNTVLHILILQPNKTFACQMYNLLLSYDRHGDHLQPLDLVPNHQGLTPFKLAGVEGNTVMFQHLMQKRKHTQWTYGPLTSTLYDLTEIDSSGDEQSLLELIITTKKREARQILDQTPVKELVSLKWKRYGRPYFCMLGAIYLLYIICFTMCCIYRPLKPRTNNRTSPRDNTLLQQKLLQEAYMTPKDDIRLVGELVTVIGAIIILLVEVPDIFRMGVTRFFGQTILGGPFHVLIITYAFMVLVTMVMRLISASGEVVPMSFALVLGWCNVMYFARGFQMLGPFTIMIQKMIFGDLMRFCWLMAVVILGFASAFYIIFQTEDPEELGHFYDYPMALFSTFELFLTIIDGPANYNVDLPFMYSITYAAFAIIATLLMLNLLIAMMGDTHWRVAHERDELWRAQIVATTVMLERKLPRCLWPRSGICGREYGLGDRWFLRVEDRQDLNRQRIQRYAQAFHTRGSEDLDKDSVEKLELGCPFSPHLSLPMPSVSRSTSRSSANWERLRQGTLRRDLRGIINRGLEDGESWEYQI
From the text: N-terminally TagRFP-labeled human TRPV6 (725 aa) was kindly provided by R. Bhardwaj and M. Hediger (University of Bern, Bern, Switzerland). This variant is translated from the first ATG codon and thus deviates from the non-ATG-initiated protein which is expressed in vivo (accession number NM_018646.6) by lacking 40 amino acids of the very N-terminus. For N-terminal labeling with EYFP, TRPV6 was cloned into pEYFP-C1 (Clontech) via EcoRI and SacII restriction sites. Mutations (F468A, R470A, F472A, K484A/Q, G488R, R492A/Q, I575A, G579A, D580A/K, H582A, W583A/F, H587A, R589A, W593A, R632A/Q, R470A, W583F) were introduced using the QuickChange XL site-directed mutagenesis kit (Stratagene, San Diego, CA, USA) and Pfu DNA Polymerase (Promega, Madison, WI, USA). pTagRFP-hTRPV6 I575A was kindly provided by the lab of M. Hediger (University of Bern, Bern, Switzerland). Forward and reverse primers for site-directed mutagenesis were synthesized by Eurofins genomics GmbH (Wien, Vienna, Austria). Intactness of the constructs in terms of sequence was confirmed by sequencing (Microsynth Austria GmbH, Wien, Vienna, Austria; Eurofins genomics GmbH, Wien, Vienna, Austria). In the present experiments, Tag-RFP-labeled constructs were implemented for NFAT screens, patch clamp measurements, and Fura-2-based Ca^2+ imaging, while for R.Geco1.2 measurements, TRPV6 WT and mutants were used which carried an EYFP label at the N-terminus (pEYFP-C1 vector) to avoid spectral overlap. R.Geco1.2 was purchased from Addgene (No. 45494), and mCherry-CRY2-5ptase OCRL was established in the lab of P. De Camilli and was derived from Addgene (No. 66836), as was CIBN-CAAX (No. 79574). Plasmids encoding for mCerulean3-CRY2-5′ ptase OCRL, YFP-CIBN-CAAX, and the mCherry-tagged PH domain were provided by K. Groschner (Medical University of Graz, Graz, Austria). […] CFP-NFAT (NFATc1, equivalent to NFAT2) was kindly provided by R. Kehlenbach (Scripps Research Institute, La Jolla, CA, USA).
Cultivation of human embryonic kidney (HEK) 293 cells occurred in DMEM supplemented with 10% fetal calf serum, penicillin (100 U/mL), and streptomycin (100 µg/mL) at 37 °C under humidified atmosphere containing 5% CO2. Transient transfection was performed 20–24 h prior to experiments using the TransFectin lipid reagent (Bio-Rad, Hercules, CA, USA), in accordance with the instructions of the supplier. For Ca^2+ imaging using R.Geco1.2, 2 μg of the indicator-encoding plasmid were additionally transfected, while 1 μg plasmid DNA was routinely used per construct in all other cases. For patch clamp experiments, cells were reseeded on poly-L-lysine-coated glass slides at least 4 h prior to experiments. To exclude mycoplasma contaminations, culture supernatants were regularly tested by means of the VenorGem Advanced Mycoplasma Detection kit (VenorGEM, Berlin, Germany).
Electrophysiological experiments were performed at 20 °C to 24 °C in whole-cell recording configurations of the patch clamp technique. A Ag/AgCl electrode was used as a reference electrode. The implemented voltage ramp protocol included a holding potential of +50 mV, wherefrom voltage was ramped from −90 mV to +90 mV within 200 ms with an interval of 5 s between individual ramps. For the time courses, the inward current density at −74 mV was considered. The internal pipette solution contained 145 mM cesium methane sulfonate, 8 mM NaCl, 3.5 mM MgCl2, 10 mM HEPES, and 20 mM EGTA (pH 7.2). For electrophysiological measurements, the basic extracellular solution was composed of 145 mM NaCl, 5 mM CsCl, 1 mM MgCl2, 10 mM HEPES, 10 mM glucose, and 10 mM CaCl2 (pH 7.4). Leak correction of currents was performed by subtracting the residual current after 1 mM La^3+ application at the end of the experiment. The liquid junction potential was determined as 12 mV; the voltages were not adjusted. Clampfit 11.1.0.23 and OriginPro 2020b software were used for data analysis. All experiments were conducted on a minimum of two different days.

CCCCCCCCCCCCCCCC(=O)N[C@@H](Cc1c[nH]cn1)C(=O)N[C@@H](CCCNC(=N)N)C(=O)N[C@@H](CCC(N)=O)C(=O)N[C@@H](CCCCN)C(=O)N[C@@H](Cc1c[nH]cn1)C(=O)N[C@@H](Cc1ccccc1)C(=O)N[C@@H](CCC(=O)O)C(=O)N[C@@H](CCCCN)C(=O)N[C@@H](CCCNC(=N)N)C(=O)N[C@@H](CCCNC(=N)N)C(N)=O [pal-PIP2 peptide] (Palmitoyl-HRQKHFEKRR-NH2)
sensitivity to peptide-based PIP2 sequestration vs WT (TRPV6 W583F): not changed compared to the wildtype control | IC50 (TRPV6 WT): 4.47 µM | inhibition at 20 µM (TRPV6 WT; HEK293, read-out: apparent inhibition of current): ~63% | inhibition at 10 µM (TRPV6 WT; HEK293, read-out: inhibition of current): ~56% | inhibition at 10 µM (TRPV6 WT; HEK293, read-out: mean percentage of inhibition (current)): 51.6% | inhibition at 10 µM (TRPV6 WT; HEK293, read-out: mean percentage of inhibition (residual current)): 54% | re-activation after washout with DMSO (TRPV6 WT; HEK293 cells): no re-activation occurred | Ca2+ selectivity (TRPV6 WT; HEK293 cells, 10 μM pal-PIP2 peptide, current-voltage relationship, Figure S1D): remained unchanged | reduction of current density (in words) (TRPV6 WT; HEK293 cells, Figure 1C,D, S1B–D): reduced in a dose-dependent manner | Hill coefficient of dose–response (TRPV6 WT; HEK293 cells, Hill fit, 0.1 μM to 30 μM): 1.95 | effect at further increased concentration (TRPV6 WT; HEK293 cells, above 30 μM up to 100 μM, supposedly due to increased DMSO concentration): rapid membrane rupture or leaky measurements | maximum inhibition of TRPV6 currents (plateau) (TRPV6 WT; HEK293 cells, plateau from 20 μM on): about 60%

Cc1cccc(C2CCC(N3CCN(c4cccnc4)CC3)CC2)c1.O=C(O)C(F)(F)F (stereo not drawn) [cis-22a]
re-activation after washout with DMSO (TRPV6 WT; HEK293 cells): no re-activation occurred | inhibition of current (in words) (TRPV6 WT; HEK293 cells, 10 µM cis-22a, after 0.1 µM, Figure 2D): almost complete block | inhibition of current (TRPV6 WT; HEK293 cells, 10 μM cis-22a, 10 mM Ca2+, relative to La3+ block, Figure 4C): ~ 98%
